Results: the CheMixHub viscosity set

Test: xn = mol fraction of the nth substance listed

CC(C)CCl + CCCCO
viscosity [mPa·s], 101.33 kPa
Settings | x1 = 0.1061 | x1 = 0.207 | x1 = 0.3058 | x1 = 0.4036 | x1 = 0.4999 | x1 = 0.6059 | x1 = 0.7007 | x1 = 0.7972 | x1 = 0.8971
298.15 K | 1.981 | 1.554 | 1.233 | 0.9932 | 0.8229 | 0.6801 | 0.5857 | 0.515 | 0.4612
313.15 K | 1.395 | 1.121 | 0.9144 | 0.7548 | 0.6405 | 0.5441 | 0.4768 | 0.4261 | 0.3888

CCCCCCCC + CCCCO
298.15 K, 101.33 kPa
Settings | viscosity [mPa·s]
x1 = 0.0832 | 2.013
x1 = 0.1173 | 1.84
x1 = 0.1519 | 1.681
x1 = 0.2113 | 1.443
x1 = 0.304 | 1.152
x1 = 0.3599 | 1.017
x1 = 0.4942 | 0.788
x1 = 0.6053 | 0.676
x1 = 0.7044 | 0.615
x1 = 0.8459 | 0.555

O=[N+]([O-])c1ccccc1 + CCCCO
viscosity [mPa·s]
Settings | 298.15 K | 303.15 K | 308.15 K | 318.15 K
101 kPa, x1 = 0.2 | – | – | 1.58 | 1.27
101 kPa, x1 = 0.4 | – | – | 1.411 | 1.128
101 kPa, x1 = 0.6 | – | – | 1.339 | 1.109
101 kPa, x1 = 0.8 | – | – | 1.35 | 1.147
101 kPa, x1 = 0.9 | – | – | 1.403 | 1.196
101 kPa, x1 = 0.95 | – | – | 1.453 | 1.252
101.33 kPa, x1 = 0.0625 | 2.311 | 2.075 | – | –
101.33 kPa, x1 = 0.1311 | 2.142 | 1.878 | – | –
101.33 kPa, x1 = 0.2051 | 1.954 | 1.739 | – | –
101.33 kPa, x1 = 0.2885 | 1.814 | 1.611 | – | –
101.33 kPa, x1 = 0.376 | 1.711 | 1.559 | – | –
101.33 kPa, x1 = 0.4747 | 1.65 | 1.423 | – | –
101.33 kPa, x1 = 0.5846 | 1.589 | 1.446 | – | –
101.33 kPa, x1 = 0.7007 | 1.625 | 1.476 | – | –
101.33 kPa, x1 = 0.8442 | 1.658 | 1.509 | – | –

CCCCC(C)=O + CCCCOC(C)=O
298.15 K, 101.33 kPa
Settings | viscosity [mPa·s]
x2 = 0.1073 | 0.595
x2 = 0.1861 | 0.601
x2 = 0.3117 | 0.611
x2 = 0.4115 | 0.62
x2 = 0.5224 | 0.63
x2 = 0.6318 | 0.64
x2 = 0.7471 | 0.649
x2 = 0.8669 | 0.663

CCCCCCCCCCCCCC + CCCCOC(C)=O
298.15 K, 101.3 kPa
Settings | viscosity [mPa·s]
x2 = 0.1284 | 1.825
x2 = 0.2404 | 1.622
x2 = 0.3362 | 1.467
x2 = 0.4227 | 1.339
x2 = 0.5018 | 1.23
x2 = 0.5367 | 1.183
x2 = 0.5715 | 1.142
x2 = 0.6959 | 0.9335
x2 = 0.8024 | 0.8736
x2 = 0.8903 | 0.7842
x2 = 0.948 | 0.7283

O=[N+]([O-])c1ccccc1 + CCCCOC(C)=O
viscosity [mPa·s], 101 kPa
Settings | 298.15 K | 308.15 K
x2 = 0.0477 | 1.576 | 1.399
x2 = 0.151 | 1.23 | 1.152
x2 = 0.2493 | 1.006 | 0.979
x2 = 0.35 | 0.848 | 0.849
x2 = 0.4488 | 0.743 | 0.755
x2 = 0.5 | 0.704 | 0.717
x2 = 0.5514 | 0.672 | 0.685
x2 = 0.6512 | 0.632 | 0.637
x2 = 0.7484 | 0.616 | 0.607
x2 = 0.8504 | 0.622 | 0.591
x2 = 0.9435 | 0.648 | 0.589

ClC(Cl)=C(Cl)Cl + CCCCOCCO
viscosity [mPa·s], 101.33 kPa
Settings | x1 = 0.1139 | x1 = 0.2084 | x1 = 0.3166 | x1 = 0.4172 | x1 = 0.5191 | x1 = 0.6215 | x1 = 0.7098 | x1 = 0.8124 | x1 = 0.9087
303.15 K | 2.167 | 1.954 | 1.716 | 1.51 | 1.327 | 1.17 | 1.049 | 0.939 | 0.854
313.15 K | 1.689 | 1.543 | 1.381 | 1.24 | 1.113 | 0.998 | 0.913 | 0.831 | 0.771

CCOCCOCCO + CCCN
298.15 K, 101 kPa
Settings | viscosity [mPa·s]
x1 = 0.0118 | 0.374
x1 = 0.0312 | 0.412
x1 = 0.0523 | 0.448
x1 = 0.0786 | 0.495
x1 = 0.099 | 0.533
x1 = 0.1259 | 0.59
x1 = 0.1728 | 0.701
x1 = 0.2037 | 0.789
x1 = 0.2298 | 0.868
x1 = 0.2646 | 0.986
x1 = 0.3048 | 1.133
x1 = 0.3392 | 1.272
x1 = 0.4055 | 1.566
x1 = 0.4419 | 1.745
x1 = 0.4758 | 1.917
x1 = 0.5112 | 2.092
x1 = 0.5558 | 2.317
x1 = 0.5903 | 2.488
x1 = 0.633 | 2.695
x1 = 0.6711 | 2.869
x1 = 0.7054 | 3.013
x1 = 0.7412 | 3.154
x1 = 0.7802 | 3.297
x1 = 0.8328 | 3.464
x1 = 0.8664 | 3.549
x1 = 0.8935 | 3.616
x1 = 0.9187 | 3.674
x1 = 0.9388 | 3.712
x1 = 0.9709 | 3.779

CCCCCCCC + CCCO
Settings | viscosity [mPa·s]
293.15 K, 101.3 kPa, x2 = 0.2756 | 0.602
293.15 K, 101.3 kPa, x2 = 0.4165 | 0.699
293.15 K, 101.3 kPa, x2 = 0.5351 | 0.825
293.15 K, 101.3 kPa, x2 = 0.6355 | 0.967
293.15 K, 101.3 kPa, x2 = 0.6822 | 1.039
293.15 K, 101.3 kPa, x2 = 0.7221 | 1.128
293.15 K, 101.3 kPa, x2 = 0.7934 | 1.295
293.15 K, 101.3 kPa, x2 = 0.8726 | 1.545
293.15 K, 101.3 kPa, x2 = 0.9243 | 1.746
293.15 K, 101.3 kPa, x2 = 0.9752 | 2.003
298.15 K, 101.3 kPa, x2 = 0.114 | 0.511
298.15 K, 101.3 kPa, x2 = 0.2756 | 0.561
298.15 K, 101.3 kPa, x2 = 0.4165 | 0.645
298.15 K, 101.3 kPa, x2 = 0.5351 | 0.752
298.15 K, 101.3 kPa, x2 = 0.6356 | 0.875
298.15 K, 101.3 kPa, x2 = 0.6823 | 0.939
298.15 K, 101.3 kPa, x2 = 0.7221 | 1.016
298.15 K, 101.3 kPa, x2 = 0.7934 | 1.162
298.15 K, 101.3 kPa, x2 = 0.8726 | 1.403
298.15 K, 101.3 kPa, x2 = 0.9243 | 1.554
298.15 K, 101.3 kPa, x2 = 0.9752 | 1.79
298.15 K, 101.33 kPa, x2 = 0.1018 | 0.535
298.15 K, 101.33 kPa, x2 = 0.1778 | 0.558
298.15 K, 101.33 kPa, x2 = 0.3151 | 0.617
298.15 K, 101.33 kPa, x2 = 0.4271 | 0.696
298.15 K, 101.33 kPa, x2 = 0.5512 | 0.809
298.15 K, 101.33 kPa, x2 = 0.6801 | 0.987
298.15 K, 101.33 kPa, x2 = 0.7955 | 1.227
298.15 K, 101.33 kPa, x2 = 0.9677 | 1.824
303.15 K, 101.3 kPa, x2 = 0.114 | 0.482
303.15 K, 101.3 kPa, x2 = 0.2756 | 0.522
303.15 K, 101.3 kPa, x2 = 0.4165 | 0.592
303.15 K, 101.3 kPa, x2 = 0.5351 | 0.686
303.15 K, 101.3 kPa, x2 = 0.6355 | 0.795
303.15 K, 101.3 kPa, x2 = 0.6822 | 0.857
303.15 K, 101.3 kPa, x2 = 0.7221 | 0.917
303.15 K, 101.3 kPa, x2 = 0.7934 | 1.045
303.15 K, 101.3 kPa, x2 = 0.8726 | 1.227
303.15 K, 101.3 kPa, x2 = 0.9243 | 1.383
303.15 K, 101.3 kPa, x2 = 0.9752 | 1.579
308.15 K, 101.3 kPa, x2 = 0.0417 | 0.458
308.15 K, 101.3 kPa, x2 = 0.1389 | 0.466
308.15 K, 101.3 kPa, x2 = 0.2682 | 0.497
308.15 K, 101.3 kPa, x2 = 0.3477 | 0.528
308.15 K, 101.3 kPa, x2 = 0.4105 | 0.558
308.15 K, 101.3 kPa, x2 = 0.4648 | 0.591
308.15 K, 101.3 kPa, x2 = 0.525 | 0.636
308.15 K, 101.3 kPa, x2 = 0.5911 | 0.694
308.15 K, 101.3 kPa, x2 = 0.6512 | 0.757
308.15 K, 101.3 kPa, x2 = 0.7011 | 0.818
308.15 K, 101.3 kPa, x2 = 0.7397 | 0.873
308.15 K, 101.3 kPa, x2 = 0.7864 | 0.95
308.15 K, 101.3 kPa, x2 = 0.8382 | 1.05
308.15 K, 101.3 kPa, x2 = 0.8827 | 1.153
308.15 K, 101.3 kPa, x2 = 0.9289 | 1.279

CCCCCO + CCCO
101.33 kPa
Settings | viscosity [mPa·s]
293.15 K, x2 = 0.1659 | 3.671
293.15 K, x2 = 0.3648 | 3.292
293.15 K, x2 = 0.5097 | 3.015
293.15 K, x2 = 0.6041 | 2.854
293.15 K, x2 = 0.7449 | 2.617
298.15 K, x2 = 0.2007 | 3.137
298.15 K, x2 = 0.381 | 2.856
298.15 K, x2 = 0.4603 | 2.722
298.15 K, x2 = 0.6314 | 2.464
298.15 K, x2 = 0.7745 | 2.261
298.15 K, x2 = 0.8626 | 2.141
